The values that follow come from patent publication US12325696B2, “Indazole derivative, preparation method therefor, and pharmaceutical application thereof” (JIANGSU HENGRUI MEDICINE CO., LTD., priority 2019, dated 2025).

The target in assay [1] is estrogen receptor ERα wild-type (Homo sapiens (Human), UniProt P03372). Briefly: Covalent modification of ERα wild-type LBD by high-resolution mass spectrometry. It is filed as binding. The settings on record: after 24 hours; 2 μM protein, 10 μM compound, 4° C. As for the experimental part: (§1) The ligand binding domain (LBD, aa296-554) of estrogen receptor ERα wild-type and ERα Y537S mutant-type was expressed in E. coli and purified. 2 μM ERα wild-type or ERα Y537S mutant-type protein and 10 μM compound were added to a buffer solution containing 50 mM Tris-HCl, pH7.5, 150 mM NaCl, 1 mM TCEP and 5% glycerol and mixed well. The solution was incubated at 4° C. for 24 hours, followed by high-resolution mass spectrometry (Agilent Technologies, Agilent Q-tof 6530) assay. Alternatively, 1 μM ERα wild-type or ERα Y537S mutant-type protein and 3 μM compound were added to a buffer solution containing 50 mM Tris-HCl, pH7.5, 150 mM NaCl, 1 mM TCEP and 5% glycerol and mixed well. The solution was incubated at 37° C. for 15 minutes, followed by high-resolution mass spectrometry assay. In the mass spectrometry assay results, the peak whose molecular weight is the sum of the molecular weight of the protein and compound is the product of covalent modification. The percentage of covalent modification is obtained by calculating the ratio of […] to total protein.

Assay [2] concerns estrogen receptor reporter gene. Briefly: Inhibition of estrogen receptor reporter gene activity (ERE-luc luciferase) in MCF7/ERE-luc cells. It is filed as cell-based. Particulars: Homo sapiens, 0.1 nM β-estradiol, 20 hours, read-out: IC50 of inhibitory activity on the activity of the estrogen receptor reporter gene. A digest of the protocol:
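MCF7 cells stably carrying ERE-driven luciferase, in charcoal-stripped serum medium, were stimulated with 0.1 nM β-estradiol plus compound (nine 10-fold dilutions from 10 μM) for 20 h at 37° C. ONE-Glo luminescence was read, and IC50 was fitted from signal versus log concentration.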
In general terms: A reporter such as luciferase makes a cellular process visible.

The test system of a further assay is MCF7 D538G. Briefly: Inhibition of proliferation of MCF7 cell expressing ERα D538G mutant. The settings on record: Homo sapiens, 144 hours; for Emax: read-out: Maximum inhibition. In kind it is cell-based. A digest of the protocol:
(§2)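 MCF7 cells stably expressing lentiviral ERα Y537S or D538G mutants, seeded 3,000 cells/well, then exposed in 2% FBS MEM to nine 4-fold dilutions from 100 nM for 144 h at 37° C. Viability read by CellTiter-Glo luminescence; IC50 fitted from concentration-response.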

Assay [3] deals with estrogen receptor ERα Y537S mutant-type (Homo sapiens (Human), UniProt P03372, Y537S). The experiment in a line: Covalent modification of ERα Y537S mutant-type LBD by high-resolution mass spectrometry. It is filed as binding. Particulars: after 24 hours; 2 μM protein, 10 μM compound, 4° C. The protocol:
as §1

For another assay, the system named is MCF7 ERαY537S. Briefly: Inhibition of proliferation of MCF7 cell expressing ERα Y537S mutant. It is filed as cell-based. The settings on record: Homo sapiens, 144 hours; for Emax: read-out: Maximum inhibition. A digest of the protocol:
as §2

The next assay concerns MCF7 cell. The experiment in a line: Inhibition of proliferation of MCF7 cell (CellTiter-Glo, 144 hours). In kind it is cell-based. The settings on record: Homo sapiens; for IC50: MCF7, CellTiter-Glo, read-out: IC50 of the inhibitory effect on the proliferation of MCF7 cell; for Emax: MCF7 cell proliferation, read-out: Maximum inhibition. A digest of the protocol: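 Seeded overnight, MCF7 cells were treated in MEM with 2% FBS with nine 4-fold dilutions from 100 nM (0.5% DMSO blank). Incubation 144 h at 37° C, 5% CO2. CellTiter-Glo luminescence read; IC50 from signal versus log concentration.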
(In general: Cellular ATP, detected with luciferase, serves as a proxy for viable cell number.)

SMILES strings stand for the structures.

Sequence of estrogen receptor ERα wild-type (P03372 296-554): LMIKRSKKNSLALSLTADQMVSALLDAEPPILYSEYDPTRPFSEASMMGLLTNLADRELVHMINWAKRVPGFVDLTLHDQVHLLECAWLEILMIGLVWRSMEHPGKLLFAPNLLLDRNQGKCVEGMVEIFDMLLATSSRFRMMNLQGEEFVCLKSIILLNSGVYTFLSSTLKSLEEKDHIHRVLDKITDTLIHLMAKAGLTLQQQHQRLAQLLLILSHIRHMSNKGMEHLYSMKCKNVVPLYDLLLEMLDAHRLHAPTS
Sequence of estrogen receptor ERα Y537S mutant-type (P03372 296-554 Y537S): as the sequence (P03372 296-554) above, with Y242S counted along it

In the case of `O=C(/C=C/CNC1(COc2ccc(/C(=C(/CC(F)(F)F)c3ccccc3)c3ccc4[nH]nc(F)c4c3)cn2)CC1)N1CCCC1` [Example 2, (E)-1-(Pyrrolidin-1-yl)-4-((1-(((5-((Z)-4,4,4-trifluoro-1-(3-fluoro-1H-indazol-5-yl)-2-phenylbut-1-en-1-yl)pyridin-2-yl)oxy)methyl)cyclopropyl)amino)but-2-en-1-one], the “Covalent modification effect on the estrogen receptor ERα wild-type” value in assay [1] worked out at 87%. For the same compound, the IC50 in assay [2] turned out to be 3 nM; with MCF7 D538G it was 2 nM; with MCF7 ERαY537S, 3 nM; in the assay with MCF7 cell, 0.6 nM. In addition, the Emax came to 104% in the assay on MCF7 D538G, 107% in the assay on MCF7 ERαY537S and 112% in the assay on MCF7 cell. In assay [3], the “Covalent modification effect on the estrogen receptor ERα Y537S mutant-type” value is recorded as 90%.
Regarding `CN(C)C(=O)/C=C/CNC1(COc2ccc(/C(=C(/CC(F)(F)F)c3ccccc3)c3ccc4[nH]nc(F)c4c3)cn2)CCCCC1` [Example 8, (E)-N,N-Dimethyl-4-((1-(((5-((Z)-4,4,4-trifluoro-1-(3-fluoro-1H-indazol-5-yl)-2-phenylbut-1-en-1-yl)pyridin-2-yl)oxy)methyl)cyclohexyl)amino)but-2-enamide], the “Covalent modification effect on the estrogen receptor ERα wild-type” value in assay [1] is on record as 96%. The IC50 in assay [2] was 3 nM; with MCF7 D538G, 1 nM; in the assay on MCF7 ERαY537S it was 2 nM; in the assay with MCF7 cell, 0.1 nM. Moreover, the Emax with MCF7 D538G came out at 103%; in the assay with MCF7 ERαY537S, 107%; in the assay on MCF7 cell, 113%. Besides, the “Covalent modification effect on the estrogen receptor ERα Y537S mutant-type” value in assay [3] turned out to be 97%.
With `O=C(/C=C/CN1CCC[C@@H](Oc2ccc(/C(=C(/CC(F)(F)F)c3ccccc3)c3ccc4[nH]nc(F)c4c3)cn2)C1)N1CCOCC1` [Example 12, (E)-1-Morpholino-4-((R)-3-((5-((Z)-4,4,4-trifluoro-1-(3-fluoro-1H-indazol-5-yl)-2-phenylbut-1-en-1-yl)pyridin-2-yl)oxy)piperidin-1-yl)but-2-en-1-one], the “Covalent modification effect on the estrogen receptor ERα wild-type” value in assay [1] turned out to be 85%. Besides, the IC50 was 2 nM in assay [2], 1 nM in the assay with MCF7 D538G, 2 nM in the assay on MCF7 ERαY537S and 0.4 nM with MCF7 cell. The results for the Emax in the assay with MCF7 D538G, in the assay on MCF7 ERαY537S and with MCF7 cell were 96%, 104% and 108%, respectively. For the same compound, in assay [3], the “Covalent modification effect on the estrogen receptor ERα Y537S mutant-type” value worked out at 83%.
In the case of `O=C(/C=C/CN1CCC[C@@H](Oc2ccc(/C(=C(/CC(F)(F)F)c3ccccc3)c3ccc4[nH]nc(F)c4c3)cn2)C1)N1CCNCC1` [Example 18, (E)-1-(Piperazin-1-yl)-4-((R)-3-((5-((Z)-4,4,4-trifluoro-1-(3-fluoro-1H-indazol-5-yl)-2-phenylbut-1-en-1-yl)pyridin-2-yl)oxy)piperidin-1-yl)but-2-en-1-one], in assay [1], the “Covalent modification effect on the estrogen receptor ERα wild-type” value is recorded as 98%. Also, the IC50 in assay [2] amounted to 6 nM; with MCF7 D538G it was 5 nM; in the assay with MCF7 ERαY537S, 8 nM; in the assay on MCF7 cell, 1 nM. Moreover, the results for the Emax with MCF7 D538G, in the assay with MCF7 ERαY537S and with MCF7 cell were 104%, 92% and 100%, respectively. Further, the “Covalent modification effect on the estrogen receptor ERα Y537S mutant-type” value in assay [3] is reported as 99%.
On to `CN(C)C(=O)/C=C/CN1CCC[C@@H](Oc2ccc(/C(=C(/CC(F)(F)F)c3ccc(F)cc3)c3ccc4[nH]nc(F)c4c3)cn2)C1` [Example 19, (E)-N,N-Dimethyl-4-((R)-3-((5-((Z)-4,4,4-trifluoro-1-(3-fluoro-1H-indazol-5-yl)-2-(4-fluorophenyl)but-1-en-1-yl)pyridin-2-yl)oxy)piperidin-1-yl)but-2-enamide], for which, in assay [1], the “Covalent modification effect on the estrogen receptor ERα wild-type” value was determined as 94%. The IC50 in assay [2] was 4 nM; with MCF7 D538G it was 2 nM; with MCF7 ERαY537S, 2 nM; with MCF7 cell, 0.4 nM. The Emax in the assay with MCF7 D538G amounted to 97%; in the assay with MCF7 ERαY537S, 106%; with MCF7 cell it was 97%. Besides, in assay [3], the “Covalent modification effect on the estrogen receptor ERα Y537S mutant-type” value was 97%.
On to `CN(C)C(=O)/C=C/CN1CCC[C@@H](Oc2ccc(/C(=C(/CC(F)(F)F)c3ccc(C(F)(F)F)cc3)c3ccc4[nH]nc(F)c4c3)cn2)C1` [Example 22, (E)-N,N-Dimethyl-4-((R)-3-((5-((Z)-4,4,4-trifluoro-1-(3-fluoro-1H-indazol-5-yl)-2-(4-(trifluoromethyl)phenyl)but-1-en-1-yl)pyridin-2-yl)oxy)piperidin-1-yl)but-2-enamide], for which the “Covalent modification effect on the estrogen receptor ERα wild-type” value in assay [1] is given as 95%. For the same compound, the IC50 in assay [2] amounted to 24 nM; with MCF7 D538G, 15 nM; with MCF7 ERαY537S, 15 nM; with MCF7 cell, 4 nM. Besides, the Emax with MCF7 D538G amounted to 93%; in the assay with MCF7 ERαY537S, 97%; in the assay with MCF7 cell it was 103%. The “Covalent modification effect on the estrogen receptor ERα Y537S mutant-type” value in assay [3] came out at 100%.
For the compound `CN(C)C(=O)/C=C/CN1CCC[C@@H](Oc2ccc(/C(=C(/CC(F)(F)F)c3ccc(S(C)(=O)=O)cc3)c3ccc4[nH]nc(F)c4c3)cn2)C1` [Example 23, (E)-N,N-Dimethyl-4-((R)-3-((5-((Z)-4,4,4-trifluoro-1-(3-fluoro-1H-indazol-5-yl)-2-(4-(methylsulfonyl)phenyl)but-1-en-1-yl)pyridin-2-yl)oxy)piperidin-1-yl)but-2-enamide], the “Covalent modification effect on the estrogen receptor ERα wild-type” value in assay [1] is reported as 95%. Further, the IC50 in assay [2] is 13 nM; in the assay on MCF7 D538G, 7 nM; in the assay on MCF7 ERαY537S, 5 nM; in the assay on MCF7 cell, 1 nM. In addition, the Emax in the assay on MCF7 D538G stood at 101%; with MCF7 ERαY537S it was 94%; in the assay with MCF7 cell it was 97%. Besides, the “Covalent modification effect on the estrogen receptor ERα Y537S mutant-type” value in assay [3] was determined as 99%.
Regarding `CN(C)C(=O)/C=C/CN1CCC[C@@H](Oc2ccc(/C(=C(/CC(F)(F)F)c3ccc(C#N)cc3)c3ccc4[nH]nc(F)c4c3)cn2)C1` [Example 24, (E)-4-((R)-3-((5-((Z)-2-(4-Cyanophenyl)-4,4,4-trifluoro-1-(3-fluoro-1H-indazol-5-yl)but-1-en-1-yl)pyridin-2-yl)oxy)piperidin-1-yl)-N,N-dimethylbut-2-enamide], the “Covalent modification effect on the estrogen receptor ERα wild-type” value in assay [1] was 90%. Also, the IC50 was found to be 9 nM in assay [2], 8 nM in the assay on MCF7 D538G, 8 nM in the assay with MCF7 ERαY537S and 1 nM in the assay on MCF7 cell. Also, the Emax amounted to 94% with MCF7 D538G, 102% with MCF7 ERαY537S and 98% in the assay on MCF7 cell. The “Covalent modification effect on the estrogen receptor ERα Y537S mutant-type” value in assay [3] is reported as 99%.
Consider `CN(C)C(=O)/C=C/CN1CCC[C@@H](Nc2ccc(/C(=C(/CC(F)(F)F)c3ccccc3)c3ccc4[nH]nc(F)c4c3)cn2)C1` [Example 31, (E)-N,N-Dimethyl-4-((R)-3-((5-((Z)-4,4,4-trifluoro-1-(3-fluoro-1H-indazol-5-yl)-2-phenylbut-1-en-1-yl)pyridin-2-yl)amino)piperidin-1-yl)but-2-enamide], for which the “Covalent modification effect on the estrogen receptor ERα wild-type” value in assay [1] is on record as 80%. The IC50 in assay [2] amounted to 6 nM; with MCF7 D538G, 2 nM; with MCF7 ERαY537S, 3 nM; with MCF7 cell, 0.7 nM. Moreover, the Emax in the assay with MCF7 D538G was 101%; with MCF7 ERαY537S it was 105%; in the assay on MCF7 cell, 97%. The “Covalent modification effect on the estrogen receptor ERα Y537S mutant-type” value in assay [3] came to 83%.
Consider `O=C(/C=C/CN1CCC[C@@H](Nc2ccc(/C(=C(/CC(F)(F)F)c3ccccc3)c3ccc4[nH]nc(F)c4c3)cn2)C1)N1CCOCC1` [Example 32, (E)-1-Morpholino-4-((R)-3-((5-((Z)-4,4,4-trifluoro-1-(3-fluoro-1H-indazol-5-yl)-2-phenylbut-1-en-1-yl)pyridin-2-yl)amino)piperidin-1-yl)but-2-en-1-one], for which the “Covalent modification effect on the estrogen receptor ERα wild-type” value in assay [1] came out at 94%. Further, the IC50 in assay [2] was determined as 28 nM; in the assay on MCF7 D538G, 11 nM; in the assay on MCF7 ERαY537S, 19 nM; in the assay on MCF7 cell it was 5 nM. For the same compound, the results for the Emax in the assay with MCF7 D538G, with MCF7 ERαY537S and in the assay with MCF7 cell were 95%, 84% and 100%, respectively. For the same compound, in assay [3], the “Covalent modification effect on the estrogen receptor ERα Y537S mutant-type” value worked out at 95%.
